Results from the CheMixHub viscosity set.

Test: xn = mol fraction of the nth substance listed

CCOC(=O)C(Cl)(Cl)Cl + O=C(O)C(Cl)(Cl)Cl
323.15 K, 101 kPa
Conditions	viscosity [mPa·s]
x1 = 0.2358	3.172
x1 = 0.4086	2.346
x1 = 0.5988	1.742
x1 = 0.7928	1.334

CCCC[N+](CCCC)(CCCC)CCCC.[Br-] + OCC(O)CO
viscosity [mPa·s], x1 = 0.2
Conditions	296.97 K	298 K	302.02 K	307.2 K	312.13 K	317.31 K	322.23 K
101 kPa	892.4	–	671.4	484.4	331.4	238	195.5
101.33 kPa	–	333.9	–	–	–	–	–

CCCC[N+](CCCC)(CCCC)CCCC.[Br-] + OCCO
Conditions	viscosity [mPa·s]
293.15 K, 101 kPa, x1 = 0.333	187.3
298 K, 100 kPa, x2 = 0.75	98
298 K, 101.33 kPa, x1 = 0.2	41.51
298.15 K, 100 kPa, x1 = 0.333	188
298.15 K, 101 kPa, x1 = 0.2	69
303.15 K, 100 kPa, x1 = 0.2	161.7
303.15 K, 101 kPa, x1 = 0.2	53.8
303.15 K, 101 kPa, x1 = 0.333	124
308 K, 100 kPa, x2 = 0.75	57
308.15 K, 101 kPa, x1 = 0.2	42.6
313.15 K, 100 kPa, x1 = 0.2	102.1
313.15 K, 101 kPa, x1 = 0.2	31.2
313.15 K, 101 kPa, x1 = 0.333	84.3
318 K, 100 kPa, x2 = 0.75	35
318.15 K, 101 kPa, x1 = 0.2	27.8
323.15 K, 100 kPa, x1 = 0.2	61.85
323.15 K, 101 kPa, x1 = 0.2	21.7
323.15 K, 101 kPa, x1 = 0.333	58.7

CCCC[N+](CCCC)(CCCC)CCCC.[Br-] + OCCOCCO
viscosity [mPa·s]
Conditions	293.15 K	303.15 K	313.15 K	323.15 K
100 kPa, x1 = 0.2	–	265.6	165.5	92.86
101 kPa, x2 = 0.667	203.9	150.6	87.28	57.39

CCCC[N+](CCCC)(CCCC)CCCC.[Br-] + OCCOCCOCCO
100 kPa, x1 = 0.2
Conditions	viscosity [mPa·s]
303.15 K	279.6
313.15 K	176.9
323.15 K	101.6

C1CCC(C2CCCCC2)CC1 + c1ccc2c(c1)CCCC2
viscosity [mPa·s], 102 kPa
Conditions	x2 = 0.1226	x2 = 0.2394	x2 = 0.3504	x2 = 0.4561	x2 = 0.5573	x2 = 0.6537	x2 = 0.747	x2 = 0.8343	x2 = 0.9189
293.15 K	3.67	3.35	3.08	2.87	2.7	2.55	2.44	2.34	2.28
303.15 K	2.91	2.67	2.48	2.33	2.2	2.09	2	1.93	1.88
313.15 K	2.36	2.19	2.04	1.93	1.83	1.75	1.68	1.62	1.58
323.15 K	1.95	1.82	1.71	1.62	1.54	1.48	1.43	1.38	1.35

C=C1CCC2CC1C2(C)C (stereo not drawn) + c1ccccc1
viscosity [mPa·s], 101 kPa
Conditions	x2 = 0.3052	x2 = 0.4296	x2 = 0.5395	x2 = 0.6373	x2 = 0.7249	x2 = 0.8039	x2 = 0.8754	x2 = 0.9405
303.15 K	1.187	0.998	0.867	0.759	0.691	0.646	0.614	0.593
308.15 K	1.106	0.936	0.807	0.71	0.655	0.619	0.587	0.566
313.15 K	1.022	0.866	0.749	0.658	0.614	0.583	0.556	0.537

CCCCC(=O)O + c1ccccc1
298.15 K, 101 kPa
Conditions	viscosity [mPa·s]
x1 = 0.04	0.62
x1 = 0.078	0.639
x1 = 0.12	0.662
x1 = 0.16	0.687
x1 = 0.34	0.825
x1 = 0.43	0.92
x1 = 0.53	1.062
x1 = 0.75	1.436

Cc1cccc(N)c1 + c1ccccc1
303.15 K, 101.33 kPa
Conditions	viscosity [mPa·s]
x1 = 0.196	0.695
x1 = 0.405	0.87
x1 = 0.598	1.15
x1 = 0.795	1.54

NC(N)=S + c1ccncc1
298.15 K, 101 kPa
Conditions	viscosity [mPa·s]
x1 = 0.0572	1.251
x1 = 0.13	2.019
